Experimental data published in ChEMBL document CHEMBL4834482, “Concise solid-phase synthesis enables derivatisation of YEATS domain cyclopeptide inhibitors for improved cellular uptake” (Bioorg Med Chem, 2021).

Assays:
Protein AF-9 [1] = biological target: T1, Protein AF-9 (Homo sapiens, UniProt P42568); experiment: Inhibition of AF9 YEATS domain (1 to 138 residues) (unknown origin) assessed as inhibition of probe-1 induced AF9 YEATS domain labelling incubated for 10 mins followed by UV-irradiation for 20 mins by Photo-cross linking based In-gel fluorescence scanning analysis
T1 sequence (P42568 whole entry): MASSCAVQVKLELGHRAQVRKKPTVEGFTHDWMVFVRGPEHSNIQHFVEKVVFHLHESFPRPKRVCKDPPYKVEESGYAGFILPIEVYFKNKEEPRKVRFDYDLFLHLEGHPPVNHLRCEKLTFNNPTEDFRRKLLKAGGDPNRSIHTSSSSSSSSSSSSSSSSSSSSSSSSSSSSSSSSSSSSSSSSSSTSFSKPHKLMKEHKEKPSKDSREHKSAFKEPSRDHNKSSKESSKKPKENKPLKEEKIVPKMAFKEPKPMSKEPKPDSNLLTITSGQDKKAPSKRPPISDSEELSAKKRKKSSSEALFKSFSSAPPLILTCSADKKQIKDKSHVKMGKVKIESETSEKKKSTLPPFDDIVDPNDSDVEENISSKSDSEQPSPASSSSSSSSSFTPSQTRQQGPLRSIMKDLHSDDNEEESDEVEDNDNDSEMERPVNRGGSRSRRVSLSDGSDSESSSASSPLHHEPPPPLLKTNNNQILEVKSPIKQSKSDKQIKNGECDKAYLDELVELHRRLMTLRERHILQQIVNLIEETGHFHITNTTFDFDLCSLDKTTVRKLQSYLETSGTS

Protein AF-9 [2] = biological target: T1, Protein AF-9; experiment: Binding affinity to AF9 YEATS domain (1 to 138 residues) (unknown origin) by isothermal titration calorimetry

## CC(=O)N[C@@H](Cc1ccc(O)cc1)C(=O)NCC(=O)N[C@@H](CCCNC(=N)N)C(=O)N[C@@H](CCCCN)C(=O)N[C@@H](CCCCN)C(=O)N[C@@H](CCCNC(=N)N)C(=O)N[C@@H](CCCNC(=N)N)C(=O)N[C@@H](CCC(N)=O)C(=O)N[C@@H](CCCNC(=N)N)C(=O)N[C@@H](CCCNC(=N)N)C(=O)N[C@@H](CCCNC(=N)N)C(=O)NCCCC[C@@H]1NC(=O)[C@H]([C@@H](C)O)NC(=O)[C@@H](NC(=O)OCc2ccccc2)CCCCNC(=N)NCCC[C@@H](C(=O)N[C@@H](CCCCNC(=O)c2cnco2)C(N)=O)NC1=O
Protein AF-9 [1]
  IC50: 1.74 µM
Protein AF-9 [2]
  Kd: 0.8 µM

## C[C@@H]1NC(=O)[C@H]([C@H](C)O)NC(=O)[C@@H](NC(=O)OCc2ccccc2)CCCCNC(=N)NCCC[C@H](C(=O)N[C@@H](CCCCNC(=O)c2cnco2)C(N)=O)NC1=O
Protein AF-9 [1]
  IC50: 0.41 µM
Protein AF-9 [2]
  Kd: 0.37 µM
